{
  "source": "patent US8343490B2",
  "about": "“Monoclonal antibody SC104 and derivative thereof specifically binding to a sialyltetraosyl carbohydrate as a potential anti-tumor therapeutic agent” (Cephalon Australia Pty Ltd, priority 2004, dated 2013)",
  "key": {"C170 xenografts [1]": {"system": "C170 xenografts", "assay_type": "in vivo", "procedure": "Prevention model. The colorectal tumour cell line, C170 was maintained in serial passage in nude mice. For therapy the mice were sacrificed and the tumours excised. The tumour was finely minced and […] pieces were implanted, under anaesthetic, subcutaneously into 30 male mice which had been randomly allocated to 4 experimental groups.\nMice were explanted with 3 mm^3 pieces of C170 xenografts. Groups of mice were treated with 5-FU/leucovorin (12.5 mg/Kg) by intravenous infusion on days 1, 3, 5, 7 and 28. On the same days mice were also injected intraperitonealy with 0.2 mg of SC104 mab. Control mice received either SC104 alone or control mouse IgG antibody with 5-FU/leucovorin. Tumour size was measured by callipers and tumour cross sectional area calculated on days 7, 9, 12, 14 and 16. Animals were weighed to assess the toxicity of treatment. At the termination of the experiment tumours were weighed to assess anti-tumour efficacy."}, "C170 cells": {"system": "C170 cells", "test": "In vitro inhibition of cell growth in combination with cytotoxic drugs, MTS", "assay_type": "cell-based", "details": "5 days, FIG. 25", "procedure": "1×10^3 colorectal C170 cells were aliquoted into individual wells of a flat bottomed 96-well plate and left to adhere overnight at 37° C. The following day the cells were treated with cisplatin, mitomycin C, oxaliplatin and tamoxifen at final concentrations of 10, 3, 1, 0.3, 0.1 and 0 μM. Against each concentration of drug the following concentrations of SC104 were titrated: 10, 3, 1, 0.3 and 0 μg/ml. As a negative control 791T/36 at concentrations 100, 30, 10, 3 and 0 μg/ml, was titrated against each concentration of drug used. Duplicate wells were used. Cells were left for 5 days at 37° C. prior to the addition of MTS reagent to each well and optical density reading at 490 nm."}, "C170 xenografts [2]": {"system": "C170 xenografts", "test": "C170 xenograft therapeutic model", "assay_type": "in vivo, nude mice", "details": "administered therapeutically, after C170 xenograft implantation; FIG. 27", "procedure": "Therapeutic model. The colorectal tumour cell line, C170 was maintained in serial passage in nude mice. For therapy the mice were sacrificed and the tumours excised. The tumour was finely minced and […] pieces were implanted, under anaesthetic, subcutaneously into 30 male mice which had been randomly allocated to 4 experimental groups.\nMice were explanted with 3 mm^3 pieces of C170 xenografts. […] On the same days mice were also injected intraperitonealy with 0.2 mg of SC104 mab. Control mice received either SC104 alone or control mouse IgG antibody with 5FU/leucovorin. Tumour size was measured by callipers and tumour cross sectional area calculated on days 12, 16, 19 and 23."}, "C170 xenografts [3]": {"system": "C170 xenografts", "assay_type": "in vivo", "details": "day 6"}},
  "note": "Read-outs that look alike come from different tables or passages of the source.",
  "data": [
    {"compound": "5-FU/leucovorin [reference compound]", "values": [
      {"measurement": "inhibition of tumour growth of freshly explanted tumours", "setting": "C170 xenografts [1]; SC104 200 μg/dose ip, 5-FU/leucovorin at maximum tolerated dose, FIG. 26a", "result": 50, "unit": "%"}
    ]},
    {"compound": "O=c1[nH]cc(F)c(=O)[nH]1", "note": "[5-FU, 5-Fluorouracil, reference compound]", "values": [
      {"measurement": "additive killing in combination with SC104", "setting": "C170 cells", "result": "additive killing"},
      {"measurement": "survival of mice", "setting": "C170 xenografts [1]; Log Rank, FIG. 26b", "result": "significant improvement of survival"},
      {"measurement": "inhibition of tumour growth", "setting": "C170 xenografts [1]; day 9", "result": 40, "unit": "%"},
      {"measurement": "inhibition of tumour growth", "setting": "C170 xenografts [1]; day 12", "result": 45, "unit": "%"},
      {"measurement": "inhibition of tumour growth", "setting": "C170 xenografts [1]; day 14", "result": 58, "unit": "%"},
      {"measurement": "inhibition of tumour growth", "setting": "C170 xenografts [2]", "result": "neither 5FU nor SC104 alone significantly inhibited growth"},
      {"measurement": "inhibition of tumour growth", "setting": "C170 xenografts [3]", "result": 62, "unit": "%"}
    ]},
    {"compound": "N.N.[Cl][Pt][Cl]", "note": "[cisplatin]", "values": [
      {"measurement": "additive killing in combination with SC104", "setting": "C170 cells", "result": "additive killing"}
    ]},
    {"compound": "CO[C@@]12[C@H](COC(N)=O)C3=C(C(=O)C(C)=C(N)C3=O)N1C[C@@H]1N[C@@H]12", "note": "[mitomycin C, Mitomycin C]", "values": [
      {"measurement": "additive killing in combination with SC104", "setting": "C170 cells", "result": "additive killing"}
    ]},
    {"compound": "O=C1[O][Pt]2([NH][C@@H]3CCCC[C@H]3[NH]2)[O]C1=O", "note": "[oxaliplatin]", "values": [
      {"measurement": "additive killing in combination with SC104", "setting": "C170 cells", "result": "No additive effect"}
    ]},
    {"compound": "CC/C(=C(\\c1ccccc1)c1ccc(OCCN(C)C)cc1)c1ccccc1", "note": "[tamoxifen]", "values": [
      {"measurement": "additive killing in combination with SC104", "setting": "C170 cells", "result": "additive killing"}
    ]}
  ]
}
